According to ChEMBL document CHEMBL1201862, “PubChem BioAssay data set” (2004):
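How tested: cells in 96-well plates exposed to compound for 48 hours at five concentrations. Abbreviation: GI50, concentration required for 50% inhibition of growth.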 The source made the active and inactive calls. Cut-off read from the data, not from the text of the source: active = GI50 up to about 1.1 µM and inactive = higher.

Key:
Experiment in all cases: DTP human tumour cell line panel, 48 h
786-0 = test system: 786-0
A498 = test system: A498
A549 = test system: A549
ACHN = test system: ACHN
BT-549 = test system: BT-549
CAKI-1 = test system: CAKI-1
CCRF-CEM = test system: CCRF-CEM
COLO 205 = test system: COLO 205
DU-145 = test system: DU-145
EKVX = test system: EKVX
HCC 2998 = test system: HCC 2998
HCT-116 = test system: HCT-116
HCT-15 = test system: HCT-15
HL-60 = test system: HL-60
HOP-92 = test system: HOP-92
HT-29 = test system: HT-29
Hs-578T = test system: Hs-578T
IGROV-1 = test system: IGROV-1
K562 = test system: K562
KM12 = test system: KM12
LOX IMVI = test system: LOX IMVI
M14 = test system: M14
MCF7 = test system: MCF7
MDA-MB-231 = test system: MDA-MB-231
MDA-MB-435 = test system: MDA-MB-435
MDA-N = test system: MDA-N
MOLT-4 = test system: MOLT-4
Malme-3M = test system: Malme-3M
NCI-H226 = test system: NCI-H226
NCI-H23 = test system: NCI-H23
NCI-H460 = test system: NCI-H460
NCI/ADR-RES = test system: NCI/ADR-RES
OVCAR-3 = test system: OVCAR-3
OVCAR-5 = test system: OVCAR-5
OVCAR-8 = test system: OVCAR-8
PC-3 = test system: PC-3
RXF 393 = test system: RXF 393
SF-268 = test system: SF-268
SF-295 = test system: SF-295
SF-539 = test system: SF-539
SK-MEL-28 = test system: SK-MEL-28
SK-MEL-2 = test system: SK-MEL-2
SK-MEL-5 = test system: SK-MEL-5
SK-OV-3 = test system: SK-OV-3
SN12C = test system: SN12C
SNB-19 = test system: SNB-19
SNB-75 = test system: SNB-75
SW-620 = test system: SW-620
T47D = test system: T47D
TK-10 = test system: TK-10
U-251 = test system: U-251
UACC-257 = test system: UACC-257
UACC-62 = test system: UACC-62
UO-31 = test system: UO-31

Cn1c(COC(=O)Nc2ccccc2)c(COC(=O)Nc2ccccc2)c2ccc3cc(Cl)c(Cl)cc3c21
GI50 (786-0): 2.76 µM (inactive) | GI50 (A498): 1.65 µM (inactive) | GI50 (A549): 23.3 µM (inactive) | GI50 (ACHN): 8.79 µM (inactive) | GI50 (BT-549): 2.58 µM (inactive) | GI50 (CAKI-1): 1.06 µM (active) | GI50 (CCRF-CEM): 1.51 µM (inactive) | GI50 (COLO 205): 3.39 µM (inactive) | GI50 (DU-145): 11.3 µM (inactive) | GI50 (EKVX): 15.9 µM (inactive) | GI50 (HCC 2998): 5.5 µM (inactive) | GI50 (HCT-116): 9.66 µM (inactive) | GI50 (HCT-15): 4.4 µM | GI50 (HL-60): 2.46 µM (inactive) | GI50 (HOP-92): 2.1 µM (inactive) | GI50 (HT-29): 8.02 µM (inactive) | GI50 (Hs-578T): 5.73 µM (inactive) | GI50 (IGROV-1): 8.95 µM (inactive) | GI50 (K562): 1.07 µM (active) | GI50 (KM12): 10.2 µM (inactive) | GI50 (LOX IMVI): 2.52 µM (inactive) | GI50 (M14): 7.71 µM (inactive) | GI50 (MCF7): 2.14 µM (inactive) | GI50 (MDA-MB-231): 3.33 µM (inactive) | GI50 (MDA-MB-435): 7.87 µM (inactive) | GI50 (MDA-N): 8.07 µM (inactive) | GI50 (MOLT-4): 1.1 µM (active) | GI50 (Malme-3M): 1.74 µM (inactive) | GI50 (NCI-H226): 13.4 µM (inactive) | GI50 (NCI-H23): 2.63 µM (inactive) | GI50 (NCI-H460): 8.2 µM (inactive) | GI50 (NCI/ADR-RES): 16.4 µM (inactive) | GI50 (OVCAR-3): 11 µM (inactive) | GI50 (OVCAR-5): 10.7 µM (inactive) | GI50 (OVCAR-8): 6.73 µM (inactive) | GI50 (PC-3): 8.05 µM (inactive) | GI50 (RXF 393): 9.64 µM (inactive) | GI50 (SF-268): 3.57 µM (inactive) | GI50 (SF-295): 18.7 µM (inactive) | GI50 (SF-539): 10.8 µM (inactive) | GI50 (SK-MEL-28): 3.61 µM (inactive) | GI50 (SK-MEL-2): 4.31 µM (inactive) | GI50 (SK-MEL-5): 4.62 µM (inactive) | GI50 (SK-OV-3): 20.9 µM (inactive) | GI50 (SN12C): 4.07 µM (inactive) | GI50 (SNB-19): 4.24 µM (inactive) | GI50 (SNB-75): 8.53 µM (inactive) | GI50 (SW-620): 2.69 µM (inactive) | GI50 (T47D): 1.53 µM (inactive) | GI50 (TK-10): 9.4 µM (inactive) | GI50 (U-251): 1.95 µM (inactive) | GI50 (UACC-257): 8.39 µM (inactive) | GI50 (UACC-62): 6.24 µM (inactive) | GI50 (UO-31): 10.4 µM (inactive)
